This is an account of results in publication PMC3072462 (Journal of medicinal chemistry, 2011).

Data set [1] can be described thus: Compound cytotoxicity / cell viability in CEM-SS cells. The format is cell-based. Particulars: human.
In data set [2] the test system is HIV-1IIIB. As to the kind of experiment: HIV cytoprotection. Particulars: for TI (therapeutic index, CC50/EC50): HIV-1IIIB in CEM-SS cells; for activity against HIV-1 (in words): 10 μM, CEM-SS cells.
Data set [3] addresses T1, recombinant HIV-1 IN (3′P) (Human immunodeficiency virus type 1 group M subtype B, UniProt P04585). Kind of data set: In vitro integrase catalytic gel assay, 3′ processing. The class given is biochemical.
Data set [4] has as its system HIV-1NL4-3 strain K103N. Kind of data set: Antiviral assay with NNRTI-resistant strain in MAGI R5 cells. The class given is cell-based. Particulars: HIV-1NL4-3 K103N (NNRTI resistance).
For data set [5], the system named is HIV-1NL4-3 strain Y181C. The description is as above. Particulars: HIV-1NL4-3 Y181C (NNRTI resistance). The class given is cell-based.
The target of data set [6] is T2, recombinant HIV-1 IN (ST) (Human immunodeficiency virus type 1 group M subtype B, UniProt P04585). Kind of data set: In vitro integrase catalytic gel assay, strand transfer. The format is biochemical.
Data set [7] concerns the target T1, recombinant HIV-1 IN (3′P). Particulars: read-out: IN IC50 3′P, gel assay; cited from earlier work.
Data set [8] concerns the target T2, recombinant HIV-1 IN (ST). Particulars: cited from earlier work.
Data set [9] has as its system HIV IN mutant Y143R. Particulars: values from two independent experiments.
Data set [10] has as its system HIV-1IIIB. Particulars: HIV-1IIIB in CEM-SS cells, cited from earlier work.
Data set [11] relates to CEM-SS cells. Particulars: single concentration 10 μM; cited from earlier work.
For data set [12], the system named is HIV IN mutant Y143R. Particulars: values from two independent experiments; cited from earlier work.
The subject of data set [13] is raltegravir-resistant HIV-1 strain 1556-1 (Y143C). Particulars: virus 1556-1, Y143C; NL4-3 based, MT-4 cells; cited from earlier work.

Where “and” joins values, the source holds several entries; their conditions need not be identical. Identical values can stand only once. Like-named read-outs stand apart in the source and are kept apart here. Some results are limits rather than exact numbers.

`CCc1c(Cc2ccccc2)c(=O)[nH]c(=O)n1COCc1ccccc1` [Compound 49, 5-Benzyl-1-(benzyloxymethyl)-6-ethylpyrimidine-2,4(1H,3H)-dione] registered a viability at 6 days, 10 µM in [1] of 100%.
In the case of `CC(C)c1c(Cc2ccccc2)n(COCc2ccc(F)cc2F)c(=O)n(O)c1=O` [Compound 12, 6-Benzyl-1-((2,4-difluorobenzyloxy)methyl)-3-hydroxy-5-isopropylpyrimidine-2,4(1H,3H)-dione], in data set [2], the “TI (therapeutic index, CC50/EC50)” value is more than 47. In addition, in data set [3], the IC50 was more than 111 µM. Further, the viability at 6 days, 10 µM in data set [1] came out at 100%.
Consider `CC(C)c1c(Cc2ccccc2)n(COCc2ccccc2)c(=O)[nH]c1=O` [TNK-651], for which the fold-resistance in data set [4] turned out to be 22; in data set [5], 72.
Take `CC(C)c1c(Cc2ccc(F)cc2)n(Cc2ccccc2)c(=O)n(O)c1=O` [Compound 64, 1-Benzyl-6-(4-fluorobenzyl)-3-hydroxy-5-isopropylpyrimidine-2,4(1H,3H)-dione]: the 50% inhibitory concentration (IC50) in [3] is more than 111 µM.
`CC(C)c1c(Cc2ccccc2)n(COCCCCc2ccc(F)cc2)c(=O)n(O)c1=O` [Compound 30, 6-Benzyl-1-((4-(4-fluorophenyl)butoxy)methyl)-3-hydroxy-5-isopropylpyrimidine-2,4(1H,3H)-dione]: the IC50 in data set [3] is more than 111 µM.
Consider `CCc1c(Cc2ccccc2)c(=O)n(O)c(=O)n1COCc1ccccc1` [Compound 55, 5-Benzyl-1-(benzyloxymethyl)-6-ethyl-3-hydroxypyrimidine-2,4(1H,3H)-dione], for which the “fold increase of IC50 value on swapping C5 and C6 substituents” value in [6] (ST, 55 vs 53) is listed as 4 fold. Further, the IC50 in [3] was more than 111 µM.
As to `CC(C)c1c(Cc2ccccc2)n(COCc2ccccc2)c(=O)n(N)c1=O` [Compound 15, 3-Amino-6-benzyl-1-(benzyloxymethyl)-5-isopropylpyrimidine-2,4(1H,3H)-dione], the IC50 in data set [7] is more than 111 µM. The “inhibitory activity against IN (in words)” value (from here on “inhibitory activity”) in data set [8] was “completely devoid of inhibitory activity”.
With `CCc1c(Cc2ccccc2)n(Cc2ccc(F)cc2)c(=O)n(O)c1=O` [Compound 68, 6-Benzyl-5-ethyl-1-(4-fluorobenzyl)-3-hydroxypyrimidine-2,4(1H,3H)-dione], in [3], the IC50 is more than 111 µM.
As to `CC(C)c1c(Cc2ccccc2)n(CCCc2ccc(F)cc2)c(=O)n(O)c1=O` [Compound 43, 6-Benzyl-1-(3-(4-fluorophenyl)propyl)-3-hydroxy-5-isopropylpyrimidine-2,4(1H,3H)-dione], the “activity against HIV-1 (in words)” value in [2] is on record as “only marginal activity”. The IC50 in data set [3] was more than 111 µM.
For the molecule `CC(C)c1c(Cc2ccccc2)n(COCc2ccc(F)cc2)c(=O)[nH]c1=O` [Compound 9, 6-Benzyl-1-((4-fluorobenzyloxy)methyl)-5-isopropylpyrimidine-2,4(1H,3H)-dione], the IC50 in data set [3] is more than 111 µM.
`CC(C)c1c(Cc2ccccc2)n(COCc2ccc(F)cc2)c(=O)n(C)c1=O` [Compound 10, 6-Benzyl-1-((4-fluorobenzyloxy)methyl)-5-isopropyl-3-methylpyrimidine-2,4(1H,3H)-dione]: in data set [3], the IC50 is more than 111 µM.
Same read-out and setting: in the case of `CC(C)c1c(Cc2ccccc2)n(CCc2ccc(F)cc2)c(=O)n(O)c1=O` [Compound 42, 6-Benzyl-1-(4-fluorophenethyl)-3-hydroxy-5-isopropylpyrimidine-2,4(1H,3H)-dione] it was more than 111 µM.
Take `CC(C)c1c(Cc2ccc(F)cc2)n(COCc2ccc(F)cc2)c(=O)n(O)c1=O` [Compound 52, 6-(4-Fluorobenzyl)-1-((4-fluorobenzyloxy)methyl)-3-hydroxy-5-isopropylpyrimidine-2,4(1H,3H)-dione]: the IC50 in data set [3] is more than 111 µM.
With `Cc1cn(COCc2ccccc2)c(=O)n(O)c1=O` [Compound 54, 1-(Benzyloxymethyl)-3-hydroxy-5-methylpyrimidine-2,4(1H,3H)-dione], in data set [3], the IC50 was more than 111 µM.
As for `CCc1c(Cc2ccccc2)n(Cc2ccccc2)c(=O)n(O)c1=O` [Compound 67, 1,6-Bibenzyl-5-ethyl-3-hydroxypyrimidine-2,4(1H,3H)-dione], the “inhibitory activity” value in data set [6] is listed as “complete loss of inhibition”. Further, the IC50 in [3] was more than 111 µM.
Turning to `Cc1nnc(C(=O)NC(C)(C)c2nc(C(=O)NCc3ccc(F)cc3)c(O)c(=O)n2C)o1` [Compound 1, raltegravir, reference compound], the “Fold-resistance IC50(mutant)/IC50(WT)” value in [9] worked out at 28.
`O=c1c2ccccc2n(Cc2ccccc2)c(=O)n1O` [Compound 75]: the IC50 in [6] and in data set [3] was more than 111 µM throughout. For the same molecule, in data set [6], the “inhibitory activity” value is “completely inactive”.
With `CC(C)c1c(Cc2ccc(F)cc2)n(COCc2ccccc2)c(=O)n(O)c1=O` [Compound 51, 1-(Benzyloxymethyl)-6-(4-fluorobenzyl)-3-hydroxy-5-isopropylpyrimidine-2,4(1H,3H)-dione], the “TI (therapeutic index, CC50/EC50)” value in [2] is on record as more than 18. For the same molecule, the IC50 in data set [3] was more than 111 µM. The molecule further gave a viability at 6 days, 10 µM in [1] of 100%.
For `CCc1c(Cc2ccccc2)n(COCc2ccccc2)c(=O)n(O)c1=O` [Compound 53, 6-Benzyl-1-(benzyloxymethyl)-5-ethyl-3-hydroxypyrimidine-2,4(1H,3H)-dione], in data set [3], the IC50 is more than 111 µM.
As to `CC(C)c1c(Cc2ccccc2)n(COCCc2ccc(F)cc2)c(=O)n(O)c1=O` [Compound 28, 6-Benzyl-1-((4-fluorophenethoxy)methyl)-3-hydroxy-5-isopropylpyrimidine-2,4(1H,3H)-dione], the IC50 in data set [3] is more than 111 µM.
For the molecule `CC(C)c1c(Cc2ccccc2)n(COCc2ccccc2)c(=O)n(O)c1=O` [Compound 11, 6-Benzyl-1-(benzyloxymethyl)-3-hydroxy-5-isopropylpyrimidine-2,4(1H,3H)-dione], the IC50 in [7] is more than 111 µM.
For `CC(C)c1c(Cc2ccccc2)n(COCCCc2ccc(F)cc2)c(=O)n(O)c1=O` [Compound 29, 6-Benzyl-1-((3-(4-fluorophenyl)propoxy)methyl)-3-hydroxy-5-isopropylpyrimidine-2,4(1H,3H)-dione], the IC50 in data set [3] was more than 111 µM.
Still for that read-out and setting: under `CCc1c(Cc2ccccc2)c(=O)n(O)c(=O)n1COCc1ccc(F)cc1` [Compound 56, 5-Benzyl-6-ethyl-1-((4-fluorobenzyloxy)methyl)-3-hydroxypyrimidine-2,4(1H,3H)-dione] stands more than 111 µM; under `Cc1cn(Cc2ccc(F)cc2)c(=O)n(O)c1=O` [Compound 70, 1-(4-Fluorobenzyl)-3-hydroxy-5-methylpyrimidine-2,4(1H,3H)-dione], more than 111 µM.
Regarding `CC(C)c1c(Cc2ccccc2)n(COCc2ccc(F)cc2)c(=O)n(O)c1=O` [Compound 4, 6-Benzyl-1-((4-fluorobenzyloxy)methyl)-3-hydroxy-5-isopropylpyrimidine-2,4(1H,3H)-dione], in data set [7], the IC50 is more than 111 µM. In [10], the “TI (therapeutic index, CC50/EC50)” value is more than 833. Also, the EC50 in data set [10] (read-out: EC50 (concentration inhibiting virus replication by 50%), dose response) is 0.024 µM. Also, in data set [10] (single concentration 10 μM), the “CPE Reduction (%)” value is given as 100%. Moreover, the “Cell Viability (%)” value in data set [11] is given as 100%. Also, in data set [12], the “Fold-resistance IC50(mutant)/IC50(WT)” value is 7 and 4. Besides, in [6] (ST, 4 vs 11), the “fold improvement in IN inhibition over the unsubstituted compound 11” value turned out to be 6 fold. The “Fold-resistance EC50(mutant)/EC50(WT)” value in [13] is given as 5.9.
For the molecule `CC(C)c1c(Cc2ccccc2)n(Cc2ccc(F)cc2)c(=O)n(O)c1=O` [Compound 32, 6-Benzyl-1-(4-fluorobenzyl)-3-hydroxy-5-isopropylpyrimidine-2,4(1H,3H)-dione], the IC50 in data set [3] was more than 111 µM.
Same read-out and setting: under `CC(C)c1c(Cc2ccc(F)cc2)n(Cc2ccc(F)cc2)c(=O)n(O)c1=O` [Compound 65, 1,6-Bis(4-fluorobenzyl)-3-hydroxy-5-isopropylpyrimidine-2,4(1H,3H)-dione] stands more than 111 µM.
With `COn1c(=O)c(C(C)C)c(Cc2ccccc2)n(COCc2ccc(F)cc2)c1=O` [Compound 14, 6-Benzyl-1-((4-fluorobenzyloxy)methyl)-5-isopropyl-3-methoxypyrimidine-2,4(1H,3H)-dione], the IC50 in data set [3] is more than 111 µM.
Turning to `CC(C)c1c(Cc2ccccc2)n(CCCCc2ccc(F)cc2)c(=O)n(O)c1=O` [Compound 44, 6-Benzyl-1-(4-(4-fluorophenyl)butyl)-3-hydroxy-5-isopropylpyrimidine-2,4(1H,3H)-dione], the “activity against HIV-1 (in words)” value in data set [2] was “only marginal activity”. In [3], the IC50 was more than 111 µM.
Regarding `CC(C)c1c(Cc2ccccc2)n(Cc2ccccc2)c(=O)n(O)c1=O` [Compound 66, 1,6-Bibenzyl-3-hydroxy-5-isopropylpyrimidine-2,4(1H,3H)-dione], in [3], the IC50 is more than 111 µM.
As to `O=c1c2ccccc2n(Cc2ccc(F)cc2)c(=O)n1O` [Compound 76], in data set [6], the IC50 is more than 111 µM and the “inhibitory activity” value was “completely inactive”. Moreover, the IC50 in data set [3] was more than 111 µM.
On to `Cc1cn(Cc2ccccc2)c(=O)n(O)c1=O` [Compound 69, 1-Benzyl-3-hydroxy-5-methylpyrimidine-2,4(1H,3H)-dione], for which the IC50 in data set [3] was more than 111 µM.
